# Values joined by “and” are separate entries in the source; they are usually repeats but may differ in a detail not shown here. Equal values may be shown once.
# Assays:
# [1] = system: CHO cells expressing huTNFR-Fc; assay: Production of huTNFR-Fc measured by standard ELISA; type: cell-based, Chinese Hamster; conditions: NaButyrate 0.5 mM, culture without inducing agent normalized to 100%
# Method: (§1) A second experiment was performed to test the effects of sodium orthovanadate on specific production of the recombinant polypeptide huTNFR-Fc, expressed from cells when compared to the same cells grown without vanadate. Flasks were inoculated at 2×10^6 cells/ml and were either grown without additional compounds or with sodium butyrate at 0.5 mM or sodium butyrate with sodium orthovanadate at 20 μM. Flasks were set up in an incubator at 31° C. Measurements for cell concentration and viability were taken using a hemacytometer and the trypan blue dye exclusion method and the results are shown in Table 2. Production of huTNFR-Fc was measured by standard ELISA.
# [2] = system: CHO cells expressing huTNFR-Fc; assay: Cell concentration and viability (hemacytometer, trypan blue dye exclusion) of cultures expressing huTNFR-Fc with inducing agents; type: cell-based, Chinese Hamster; conditions: day 5, 31° C.
# Method: as §1
# Recombinant CHO Cells = assay: Effect of vanadate and reduced IGF-1 on recombinant CHO cells; type: cell-based, Chinese Hamster; design: cells/ml: scale not given here
# Method: (§2) Vanadate can also reduce the requirement for growth factors to maintain recombinant cell viability. […] At 5 ng/L with vanadate, IGF-1 is sufficient to maintain the same viability of recombinant polypeptide producing cells as 100 μg/L IGF-1 in the absence of vanadate.
# [3] = system: Chinese Hamster Ovary (CHO) cell line genetically engineered to produce huTNFR:Fc; assay: Dose response of vanadate in shake flask cultures (viable cell density, viability); type: cell-based; conditions: day 5, shake flask, serum-free medium
# Method: In this experiment, the effect of adding various concentrations of vanadate was tested in mammalian cell shake flask cultures. A Chinese Hamster Ovary (CHO) cell line that had been genetically engineered to produce huTNFR:Fc (a soluble form of the human tumor necrosis factor alpha receptor extracellular domain fused to an Fc polypeptide from an immunogolublin see in U.S. Pat. No. 5,945,397) was grown in serum-free medium. A dose response analysis was performed to determine an optimal dose for vanadate.
# [4] = system: recombinant cell culture (expressing huTNFR-Fc); assay: Bioreactor culture (balanced feed experiment) with reduced IGF-1 plus vanadate, FIG. 1; type: cell-based; conditions: 25 µg/L IGF-1 with 20 μM sodium orthovanadate compared to 100 µg/L IGF-1 without vanadate
# Method: FIG. 1. Addition of sodium orthovanadate to a recombinant cell culture (expressing huTNFR-Fc) reduces the requirement for IGF-1 to maintain viability in a balanced feed experiment. […]
# as §2
# The results from these experiments show how adding vanadate, in this case orthovanadate, can be applied in mammalian cell culture for a number of purposes. Cell viability is increased in cultures having 20 μM orthovanadate compared to cells grown without orthovanadate over a five day period (FIG. 1). In short, adding vanadate, such as orthovanadate, helps to create a more efficient mammalian cell culture process by reducing cell death, reducing the requirement of growth factors in the cell culture and increasing secreted polypeptide production.
# [5] = with sodium orthovanadate (+), IGF-1 5 ng/L
# [6] = with sodium orthovanadate (+), IGF-1 100 μg/L
# [7] = IGF-1 5 ng/L, without sodium orthovanadate (−)
# [8] = IGF-1 100 μg/L, without sodium orthovanadate (−)
molecule,measurement,setting,value
"CCCC(=O)[O-].[Na+] [NaButyrate, sodium butyrate]",Specific Productivity,[1],161% and 153%
same,Titer,[1],140% and 125%
same,% Viability,[2]; NaButyrate 0.5 mM,78%
same,"VCD, ×10^6",[2]; NaButyrate 0.5 mM,5.547 ×10^6 and 5.067 ×10^6
"[Na+].[Na+].[Na+].[O]=[V]([O-])([O-])[O-] [Vanadate, sodium orthovanadate]",% viable,Recombinant CHO Cells; [5],73%
same,cells/ml,Recombinant CHO Cells; [5],4.916 cells/ml
same,% viable,Recombinant CHO Cells; [6],90%
same,cells/ml,Recombinant CHO Cells; [6],6.806 cells/ml
same,% Viability,[3]; 10 uM vanadate,80% and 89%
same,"VCD, ×10^6",[3]; 10 uM vanadate,5.102 ×10^6 and 6.796 ×10^6
same,% Viability,[3]; 20 uM vanadate,90%
same,"VCD, ×10^6",[3]; 20 uM vanadate,5.8 ×10^6
same,% Viability,[3]; 35 uM vanadate,87% and 90%
same,"VCD, ×10^6",[3]; 35 uM vanadate,5.142 ×10^6 and 5.184 ×10^6
same,% Viability,[3]; 50 uM vanadate,83% and 81%
same,"VCD, ×10^6",[3]; 50 uM vanadate,4.136 ×10^6 and 3.625 ×10^6
same,% Viability,[2]; sodium butyrate 0.5 mM with sodium orthovanadate 20 μM (0.02 mM),95%
same,cell viability,[4]; after four days,improved
same,cell survival,[4]; after six days,markedly more cell survival
"IGF-1: insulin like growth factor (IGF-1), growth factor added to the medium",% viable,Recombinant CHO Cells; [7],58%
same,cells/ml,Recombinant CHO Cells; [7],3.936 cells/ml
same,% viable,Recombinant CHO Cells; [8],74%
same,cells/ml,Recombinant CHO Cells; [8],5.825 cells/ml

# Source: US6974681B1, “Cell culture performance with vanadate” (Immunex Corporation, priority 2002, dated 2005)
